The values below come from patent US5100876A, “16-decarboxy-16-hydroxy derivatives of amphotericin B” (Beecham Group p.l.c., priority 1988, dated 1992).

SMILES strings stand for the structures. ≈ marks a conversion by molar mass, not a printed value.

Assay [1] concerns Candida parapsilosis 937 A. Nature of the assay: Minimum Inhibitory Concentration (MIC) by broth dilution in microtitre tray. As to conditions: inoculum 10^5 cells/ml, 37° C. It counts as cell-based. As to the method:
(§1) The Minimum Inhibitory Concentration (MIC) was determined by diluting the test compound in a broth medium in a microtitre tray. The organisms, which had been grown previously in a broth medium, were diluted and added to the wells to provide a final inoculum of approximately 10^5 colony-formingunits per well. The trays were incubated at 37° C. and the turbidity of each well noted at intervals. The MIC was taken as the lowest concentration (in μg/ml) which prevented significant growth. |Minimum Inhibitory Concentration (μg/ml) |(determined after 2 and 3 days incubation) | *Inoculum 10^5 cells/ml | YNB: Yeast Nitrogen Base Broth | SAB: Sabouraud's Dextrose Broth.
In general terms: Broth dilution looks for growth in wells or tubes with falling amounts of substance.

The next assay relates to Candida albicans 73/079. The assay is described as above. It counts as cell-based. As to conditions: inoculum 10^5 cells/ml, 37° C. On the procedure:
as §1

Where [2] appears, read: 48 h, day 2, YNB (Yeast Nitrogen Base Broth).
The mark [3] stands for this setting: 72 h, day 3, YNB (Yeast Nitrogen Base Broth).

In the case of `C[C@@H]1[C@H](O)[C@@H](C)/C=C/C=C/C=C/C=C/C=C/C=C/C=C/[C@H](O[C@@H]2O[C@H](C)[C@@H](O)[C@H](N)[C@@H]2O)C[C@@H]2O[C@](O)(C[C@@H](O)C[C@@H](O)[C@H](O)CC[C@@H](O)C[C@@H](O)CC(=O)O[C@H]1C)C[C@H](O)[C@H]2CO` [Example 4, 16-Decarboxy-16-hydroxymethylamohotericin B], the MIC in assay [1] (937A, 48 h, day 2, SAB (Sabouraud's Dextrose Broth)) came to 1 µg/mL (≈ 1.1 µM); in assay [1] (937A, 72 h, day 3, SAB (Sabouraud's Dextrose Broth)), 2 µg/mL (≈ 2.2 µM); in assay [1] (setting [2]) it was 8 µg/mL (≈ 8.79 µM); in assay [1] (setting [3]) it was 8 µg/mL (≈ 8.79 µM); in the assay with Candida albicans 73/079 (setting [2]), 1 µg/mL (≈ 1.1 µM); against Candida albicans 73/079 (setting [3]), 2 µg/mL (≈ 2.2 µM). The MIC in the assay on Candida albicans 73/079 (Candida albicans, 73/079, 48 h, day 2, SAB (Sabouraud's Dextrose Broth)) came out at 1 µg/mL (≈ 1.1 µM); with Candida albicans 73/079 (Candida albicans, 73/079, 72 h, day 3, SAB (Sabouraud's Dextrose Broth)), 1 µg/mL (≈ 1.1 µM).

As a reminder, the MIC is the lowest concentration found to suppress growth. A higher MIC goes with a less susceptible organism.
